Source: patent publication US6794365B2, “Malonic acid derivatives, processes for their preparation their use and pharmaceutical compositions containing them” (Aventis Pharma Deutschland GmbH, priority 2000, dated 2004)
Where a name gives a salt, the structure may show the parent alone.

What follows are compounds tested against factor Xa (Homo sapiens, UniProt P00742) (assay: In vitro Factor Xa assay (Test 1a), chromogenic substrate S-2765). Settings: Factor Xa inhibitory activity; Ki from IC50 corrected for substrate competition; 25° C., pH 7.8; read-out: Ki (FXa).
Type: biochemical
Parameters: purchased Enzyme Research Laboratories, Inc; South Bend, Ind
Method: Purified enzymes are used in chromogenic assays. To determine the inhibition constant, the IC50 value is corrected for competition with substrate using the formula: […] where Km is the Michaelis-Menten-constant (Y.-C. Chen and W. H. Prusoff, Biochem. Pharmacol. 22: […] (1973), which is incorporated herein by reference). TBS-PEG buffer (50 mM Tris-Cl, pH 7.8, 200 mM NaCl, 0.05% (w/v) PEG-8000, 0.02% (w/v) NaN3) is used for this assay. The IC50 is determined by combining in appropriate wells of a Costar half-area microtiter plate 25 μl human factor Xa (Enzyme Research Laboratories, Inc.; South Bend, Ind.) in TBS-PEG; 40 μl 10% (v/v) DMSO in TBS-PEG (uninhibited control) or various concentrations of the compound to be tested diluted in 10% (v/v) DMSO in TBS-PEG; and substrate S-2765 (N-benzyloxycarbonyl-[…]-nitroanilide; Kabi Pharmacia, Inc.; Franklin Ohio) in TBS-PEG. […] The initial velocity of chromogenic substrate hydrolysis is measured by the change in absorbance at 405 nm using a Bio-tek Instruments kinetic plate reader ([…] 25° C. during the linear portion of the time course (usually 1.5 min after addition of substrate).

factor Xa, sequence (P00742 235-488 limits assumed): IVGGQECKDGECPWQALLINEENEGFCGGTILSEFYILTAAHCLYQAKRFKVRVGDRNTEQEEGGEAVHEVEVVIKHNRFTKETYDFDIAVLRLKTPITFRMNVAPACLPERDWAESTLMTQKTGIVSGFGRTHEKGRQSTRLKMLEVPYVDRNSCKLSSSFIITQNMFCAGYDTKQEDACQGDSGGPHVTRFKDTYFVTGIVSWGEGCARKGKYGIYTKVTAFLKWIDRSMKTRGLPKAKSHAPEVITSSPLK
factor Xa, sequence (P00742 41-179 partner limits assumed): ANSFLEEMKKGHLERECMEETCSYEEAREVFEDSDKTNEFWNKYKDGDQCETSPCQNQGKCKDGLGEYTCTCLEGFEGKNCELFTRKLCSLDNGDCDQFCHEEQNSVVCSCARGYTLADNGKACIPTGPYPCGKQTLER

| Structure (SMILES) | Ki [nM] |
| --- | --- |
| N=C(N)NCCC[C@H](NC(=O)[C@@H](NC(=O)C(Cc1ccc(C(=N)NO)cc1)C(=O)NCc1ccccc1)C1CCCCC1)C(N)=O (single isomer, unassigned; more polar) [Example 129] | 360 |
| CC(C)C[C@H](NC(=O)[C@H](Cc1ccc[n+](C)c1)NC(=O)[C@@H](NC(=O)C(Cc1ccc(C(=N)N)cc1)C(=O)N(C(C)C)C(C)C)C1CCCCC1)C(=O)N1CCC[C@H]1C(N)=O (single isomer, unassigned; more polar) [Example 94] | 1700 |
| C=CCOC(=O)[C@H](CCCNC(=N)N)NC(=O)[C@@H](NC(=O)C(Cc1ccc(C(=N)N)cc1)C(=O)N(C)Cc1ccccc1)C1CCCCC1 (single isomer, unassigned; less polar) [Example 6] | 1 |
| CN(C)C(=O)C(Cc1ccc(C(=N)N)cc1)C(=O)N[C@@H](CCc1ccccc1)C(=O)N[C@@H](CCCNC(=N)N)C(N)=O (stereo partly drawn) [Example 40, 2-(4-Carbamimidoyl-benzyl)-N-[1-(S)-(1-(S)-carbamoyl-4-guanidino-butylcarbamoyl)-3-phenyl-propyl]-N′,N′-dimethyl-malonamide trifluoroacetic acid salt] | 10.7 |
| C=CCNC(=O)C(Cc1ccc(C(=N)N)cc1)C(=O)N[C@@H](Cc1ccc(N)cc1)C(=O)N[C@@H](CCCNC(=N)N)C(N)=O (stereo partly drawn) [Example 17, N-Allyl-N′-[2-(4-amino-phenyl)-1-(S)-(1-(S)-carbamoyl-4-guanidino-butylcarbamoyl)-ethyl]-2-(4-carbamimidoyl-benzyl)-malonamide trifluoroacetic acid salt] | 2290 |
| CCOC(=O)[C@H](CCCNC(=N)N)NC(=O)[C@@H](NC(=O)C(Cc1ccc(C(=N)N)cc1)C(=O)NCc1ccccc1)C1CCCCC1 (single isomer, unassigned; less polar) [Example 136] | 10 |
| CN(C)C(=O)C(Cc1ccc(C(=N)N)cc1)C(=O)N1Cc2ccccc2C[C@H]1C(=O)N[C@@H](CCCNC(=N)N)C(N)=O (stereo partly drawn) [Example 10, 2-[3-(4-Carbamimidoyl-phenyl)-2-dimethylcarbamoyl-propionyl]-1,2,3,4-tetrahydro-isoquinoline-3-(S)-carboxylic acid (1-(S)-carbamoyl-4-guanidino-butyl)-amide trifluoroacetic acid salt] | 604 |
| CCC(C)[C@@H](C(=O)N[C@@H](CCCNC(=N)N)C(N)=O)N(C)C(=O)C(Cc1ccc(C(=N)N)cc1)C(=O)Nc1ccccc1 (stereo partly drawn) [Example 21, 2-(4-Carbamimidoyl-benzyl)-N-[1-(S)-(1-(S)-carbamoyl-4-guanidino-butylcarbamoyl)-2-methyl-butyl]-N-methyl-N′-phenyl-malonamide trifluoroacetic acid salt] | 8370 |
| CN(C)C(=O)C(Cc1ccc(C(=N)N)cc1)C(=O)N[C@H](C(=O)N(CC(N)=O)Cc1ccncc1)C1CCCCC1 (single isomer, unassigned; more polar) [Example 104] | 6500 |
| CC(C)C[C@H](NC(=O)[C@H](CCCNC(=N)N)NC(=O)[C@@H](NC(=O)C(Cc1ccc(N)cc1)C(=O)N(C(C)C)C(C)C)C1CCCCC1)C(=O)N1CCC[C@H]1C(N)=O (single isomer, unassigned; less polar) [Example 97] | 40 |
| CN(C)C(=O)C(Cc1ccc(C(=N)NO)cc1)C(=O)N[C@H](C(=O)N[C@@H](CCCNC(=N)N)C(N)=O)C1CCCCC1 (single isomer, unassigned; less polar) [Example 3] | 156 |
| N=C(N)NCCC[C@H](NC(=O)[C@H](Cc1ccc2ccccc2c1)NC(=O)C(Cc1ccc(C(=N)N)cc1)C(=O)Nc1ccccc1)C(N)=O (stereo partly drawn) [Example 38, 2-(4-Carbamimidoyl-benzyl)-N-[1-(S)-(1-(S)-carbamoyl-4-guanidino-butylcarbamoyl)-2-naphthalen-2-yl-ethyl]-N′-phenyl-malonamide trifluoroacetic acid] | 1100 |

Now from value to compound:

| Ki [nM] | Structure (SMILES) |
| --- | --- |
| 957 | C=CCNC(=O)C(Cc1ccc(C(=N)N)cc1)C(=O)N[C@@H](COCc1ccccc1)C(=O)N[C@@H](CCCNC(=N)N)C(N)=O (stereo partly drawn) [Example 61, N-Allyl-N′-[2-benzyloxy-1-(S)-(1-(S)-carbamoyl-4-guanidino-butylcarbamoyl)-ethyl]-2-(4-carbamimidoyl-benzyl)-malonamide trifluoroacetic acid salt] |
| 4300 | CCCC[C@@H](NC(=O)C(Cc1ccc(C(=N)N)cc1)C(=O)N(C)C)C(=O)N[C@@H](CCCNC(=N)N)C(=O)O (stereo partly drawn) [Example 72, 2-(S)-{2-(R)-[3-(4-Carbamimidoyl-phenyl)-2-dimethylcarbamoyl-propionylamino]-hexanoylamino}-5-guanidino-pentanoic acid trifluoroacetic acid salt] |
| 57.5 | N=C(N)NCCC[C@H](NC(=O)[C@@H](NC(=O)C(Cc1ccc(C(=N)N)cc1)C(=O)Nc1ccccc1)c1ccccc1)C(N)=O (stereo partly drawn) [Example 58, 2-(4-Carbamimidoyl-benzyl)-N-[(S)-(1-(S)-carbamoyl-4-guanidino-butylcarbamoyl)-phenyl-methyl]-N′-phenyl-malonamide trifluoroacetic acid salt] |
| 11 | CN(Cc1ccccc1)C(=O)C(Cc1ccc(C(=N)N)cc1)C(=O)N[C@H](C(=O)N[C@@H](CCCNC(=N)N)C(N)=O)C1CCCCC1 (stereo partly drawn) [Example 144, N-Benzyl-2-(4-carbamimidoyl-benzyl)-N′-[(S)-(1-(S)-carbamoyl-4-guanidino-butylcarbamoyl)-cyclohexyl-methyl]-N-methyl-malonamide trifluoroacetic acid salt] |
| 2.1 | CN(C)C(=O)C(Cc1ccc(C(=N)N)cc1)C(=O)N[C@H](C(=O)N[C@@H](CCCNC(=N)N)C(N)=O)c1ccccc1 (stereo partly drawn) [Example 56, 2-(4-Carbamimidoyl-benzyl)-N-[(S)-(1-(S)-carbamoyl-4-guanidino-butylcarbamoyl)-phenyl-methyl]-N′,N′-dimethyl-malonamide trifluoroacetic acid salt] |
| 39.3 | N=C(N)NCCC[C@H](NC(=O)[C@@H](NC(=O)C(Cc1ccc(C(=N)N)cc1)C(=O)NCc1ccccc1)C1CCCCC1)C(=O)O (stereo partly drawn) [Example 82, 2-(S)-{2-(S)-[2-Benzylcarbamoyl-3-(4-carbamimidoyl-phenyl)-propionylamino]-2-cyclohexyl-acetylamino}-5-guanidino-pentanoic acid trifluoroacetic acid salt] |
| 285 | CN(C)C(=O)C(Cc1ccc(C(=N)N)cc1)C(=O)N[C@@H](CCC(=O)O)C(=O)N[C@@H](CCCNC(=N)N)C(=O)N[C@@H](CC1CCCCC1)C(N)=O (stereo partly drawn) [Example 69, 4-(S)-[3-(4-Carbamimidoyl-phenyl)-2-dimethylcarbamoyl-propionylamino]-4-[1-(S)-(1-(S)-carbamoyl-2-cyclohexyl-ethylcarbamoyl)-4-guanidino-butylcarbamoyl]-butyric acid trifluoroacetic acid salt] |
| 6480 | C=CCNC(=O)C(Cc1ccc(C(=N)N)cc1)C(=O)N[C@@H](CCC(=O)O)C(=O)N[C@@H](CCCNC(=N)N)C(=O)N[C@@H](CC1CCCCC1)C(N)=O (stereo partly drawn) [Example 89, 4-(S)-[2-Allylcarbamoyl-3-(4-carbamimidoyl-phenyl)-propionylamino]-4-[1-(S)-(1-(S)-carbamoyl-2-cyclohexyl-ethylcarbamoyl)-4-guanidino-butylcarbamoyl]-butyric acid trifluoroacetic acid salt] |
